Test results: patent US10703749B2, “P2X7 modulators” (Janssen Pharmaceutica NV, priority 2013, dated 2020)

Biological target: P2X7 (Homo sapiens (Human), UniProt Q99572)
Assay: P2X7 antagonism in human PBMCs (IL-1β release, ELISA)
Assay type: cell-based
Conditions: 10 μM test compound, LPS 30 ng/ml + Bz-ATP 0.5 mM
Protocol: Human blood was collected using a blood donor program. PBMCs were isolated from blood using a Ficoll density gradient technique. Briefly, blood was laid on Ficoll solution and centrifuged at RT for 20 minutes at 2000 rpm. The buffy layer (between red blood cells and plasma) was carefully collected by aspiration, washed with PBS and centrifuged again at 1500 rpm for 15 minutes. The resulting cell pellet was washed and plated on 96 well-plates for experiments. For the Mouse/Human Whole Blood experiments, 150 μl of either mouse or human blood was platted on 96 well-plates. Lipopolysaccharide (LPS) (30 ng/ml) was added to each well and incubated for 1 hour. Test compounds were then added and incubated for 30 minutes. The P2X7 agonist, 2′(3′)-O-(4-benzoylbenzoyl) adenosine 5′-triphosphate (Bz-ATP) was then added at a final concentration of 0.5 mM (PBMC) or 1 mM (blood). Cells were incubated for an additional 1.5 hours. At that point, supernatant was collected and stored for IL-1β assay using manufacturer's protocol for enzyme-linked immunosorbent assay (ELISA). Data was expressed as percent control, where control is defined as the difference in IL-1β release in LPS+Bz-ATP samples and LPS only samples. Data was plotted as response (% control) versus concentration to generate IC50 values.

Chain of P2X7 (Q99572 whole entry): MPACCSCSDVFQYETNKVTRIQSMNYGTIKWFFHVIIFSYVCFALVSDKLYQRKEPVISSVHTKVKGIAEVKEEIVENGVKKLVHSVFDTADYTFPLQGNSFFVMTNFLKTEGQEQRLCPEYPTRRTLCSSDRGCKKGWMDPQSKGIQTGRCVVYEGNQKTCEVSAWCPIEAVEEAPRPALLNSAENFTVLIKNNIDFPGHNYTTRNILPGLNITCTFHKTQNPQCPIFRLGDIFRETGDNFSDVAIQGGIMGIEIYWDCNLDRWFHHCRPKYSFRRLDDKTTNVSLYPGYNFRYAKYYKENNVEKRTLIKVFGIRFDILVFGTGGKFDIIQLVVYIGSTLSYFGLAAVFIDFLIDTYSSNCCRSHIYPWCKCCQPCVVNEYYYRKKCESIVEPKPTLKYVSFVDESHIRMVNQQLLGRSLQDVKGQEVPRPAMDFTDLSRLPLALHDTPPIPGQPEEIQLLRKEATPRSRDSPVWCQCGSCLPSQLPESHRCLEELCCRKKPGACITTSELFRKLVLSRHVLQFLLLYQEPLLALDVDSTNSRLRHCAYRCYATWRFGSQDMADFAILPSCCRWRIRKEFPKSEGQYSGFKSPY

| SMILES | PBMC 10 μM (% control) |
| --- | --- |
| Cc1c(C(=O)N2Cc3nnn(C4=NN=CC4)c3CC2C)cccc1C(F)(F)F (stereo not shown) [Example 154, (6-methyl-1-(1H-pyrazol-3-yl)-6,7-dihydro-1H-[1,2,3]triazolo[4,5-c]pyridin-5(4H)-yl)(2-methyl-3-(trifluoromethyl)phenyl)methanone] | −0.6 % control |
| Cc1cc(C)nc(-n2nnc3c2CCN(C(=O)c2cccc(C(F)(F)F)c2Cl)C3C)n1 (stereo not shown) [Example 253, (2-Chloro-3-(trifluoromethyl)phenyl)(1-(4,6-dimethylpyrimidin-2-yl)-4-methyl-6,7-dihydro-1H-[1,2,3]triazolo[4,5-c]pyridin-5(4H)-yl)methanone] | −2.6 % control |
| CC1c2nn(COCC[Si](C)(C)C)c(-c3ncc(F)cn3)c2CCN1C(=O)c1cccc(C(F)(F)F)c1Cl (stereo not shown) [Example 303, (2-chloro-3-(trifluoromethyl)phenyl)(3-(5-fluoropyrimidin-2-yl)-7-methyl-2-((2-(trimethylsilyl)ethoxy)methyl)-4,5-dihydro-2H-pyrazolo[3,4-c]pyridin-6(7H)-yl)methanone] | −1.6 % control |
| Cc1nc2c(n1-c1ccccc1)CCN(C(=O)c1cccc(Cl)c1Cl)C2 [Example 331, (2,3-dichlorophenyl)(2-methyl-1-phenyl-6,7-dihydro-1H-imidazo[4,5-c]pyridin-5 (4H)-yl)methanone] | −11.0 % control |
